Data: article PMC4772377, “Structural insights into Cydia pomonella pheromone binding protein 2 mediated prediction of potentially active semiochemicals” (Scientific Reports, 2016)

Each molecule was assayed against CpomPBP2 (Cydia pomonella, UniProt I3ZNT9) (assay: Competitive fluorescence binding assay with 1-NPN probe). Settings: 2 μM CpomPBP2 and 2 μM 1-NPN, 50 mM Tris-HCl pH 6.8 (text: pH7.0); calculated from IC50; read-out: KD (dissociation constant of competitor).
CpomPBP2, sequence (I3ZNT9 26-169 limits assumed): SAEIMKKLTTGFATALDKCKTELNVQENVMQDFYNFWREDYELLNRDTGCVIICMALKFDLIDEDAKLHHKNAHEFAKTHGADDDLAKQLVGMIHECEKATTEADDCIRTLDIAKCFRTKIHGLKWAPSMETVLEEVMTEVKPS

Kd | Structure (SMILES)
6.99 ± 0.72 µM | CCCCCCC/C=C/C=C/C=O [E,E-2,4-Dodecadienal]
16.2 ± 0.84 µM | CCCCCCOC(=O)CCCCC [Hexyl Hexanoate]
97 ± 2.26 µM | CCC=CCCOC(=O)C(C)CC (stereo not drawn) [Z-3-Hexenyl-2-Methylbutanoate]
